The record followed here is PubChem BioAssay (NCI).

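A five-concentration, 48-hour dose response in 96-well plates underlies each endpoint, interpolated linearly between surrounding concentrations. TGI is the concentration that stops growth completely.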 Where only a bound is given, the exact number is not on record here.

Assay in all cases: NCI tumour cell line growth inhibition, 48 h
In experiment [1] the test system is HOP-18 NSCLC.
Experiment [2] has as its system KM20L2 colon.
The subject of experiment [3] is LXFL 529 NSCLC.
For experiment [4], the system named is M19-MEL melanoma.
The subject of experiment [5] is SNB-78 CNS.
For experiment [6], the system named is DLD-1 colon.
The subject of experiment [7] is RXF-631 renal.
Experiment [8] relates to P388 leukemia.
The subject of experiment [9] is P388/ADR leukemia.
Experiment [10] relates to SN12K1 renal.

On to `COc1ccccc1C1C(C(=O)O)=C(CO)Oc2cc3c(cc21)OCO3` (stereo unspecified), for which the TGI in [1], in experiment [2], in [3], in experiment [4] and in experiment [5] was over 100 µM in each case.
Consider `C[C@]12C=CC(=O)C=C1CC[C@H]1[C@@H]3C[C@@H](O)[C@](O)(C(=O)CO)[C@@]3(C)C[C@H](O)[C@@]12F`, for which the TGI in experiment [6], in [2], in [3], in experiment [4], in experiment [7] and in experiment [5] was over 100 µM throughout.
In the case of `CC1CC=CC(O)C1` (stereo unspecified), the TGI in experiment [6], in [1], in [2], in experiment [4], in experiment [8] and in [9] was over 100 µM throughout. For the same compound, the TGI in experiment [10] and in [5] was over 100 µM throughout.
As to `CNC(=S)N(C)C(=S)Nn1c(=O)c(C)nn(C)c1=S`, the TGI in experiment [6], in experiment [1], in experiment [2], in experiment [3], in experiment [4] and in [5] was over 100 µM throughout.
As for `COc1cc(C[S+]2CCCC2)c(SC)cc1C[S+]1CCCC1`, the TGI in experiment [6], in [2], in [3], in [4], in [7] and in [5] was over 100 µM each time.
On to `CC(=O)OC1CCC2(C)C3CCC4(C)C(c5ccc(=O)oc5)CC5OC54C3CCC2(O)C1` (stereo unspecified), for which the TGI in experiment [6] was 1.57 µM; in experiment [1], 7.38 µM; in experiment [2], 13.2 µM; in experiment [4], 11.8 µM; in experiment [8], over 200 µM; in [9], over 200 µM. The TGI in [10] worked out at 3.7 µM; in experiment [5], 12 µM.
Consider `O=C(OC(=O)n1ccc2ccccc21)n1ccc2ccccc21`, for which the TGI in experiment [6], in experiment [1], in experiment [2], in [4], in [10] and in experiment [5] was over 100 µM throughout.
With `O=NN(CCCl)C(=O)NC1CCSc2ccccc21` (stereo unspecified), the TGI was over 100 µM in [6]; over 100 µM in experiment [1]; over 100 µM in experiment [2]; over 100 µM in [4]; 82.6 µM in [8]; over 100 µM in experiment [9]. Also, the TGI in experiment [10] and in experiment [5] was over 100 µM throughout.
As for `Cc1ccc(S(=O)(=O)Oc2cc(-c3ccccc3)nc3ccccc23)cc1`, the TGI in experiment [6] is over 46.8 µM; in [1], 45.8 µM; in experiment [2], 3.52 µM; in [4], 40.6 µM; in experiment [8], 3.12 µM; in experiment [9] it was 12.6 µM. Moreover, the results for the TGI in experiment [10] and in [5] were 4.25 µM and 50.6 µM, respectively.
